These results are taken from patent US20070218456A1, “CELLULAR ASSAYS FOR SIGNALING RECEPTORS” (INVITROGEN CORPORATION, priority 2006, published 2007).

The structures appear in SMILES notation. pEC50: −log10 of the molar value. Converted amounts (≈) assume the structure as drawn.

Assay [1] has as its system T-REx™-GPR23-CRE-bla-CHO-K1 clone H6-E2. The assay is described as follows: T-REx-GPR23-CRE-bla-CHO-K1 clone H6-E2 beta-lactamase reporter assay (induction). In kind it is cell-based, Chinese hamster. How it is done: Six clones selected for further testing were expanded and retested for their inducible GPR23 specific activity. The clones were plated at 25,000 cells per well in a 96 well black walled clear bottom tissue culture assay plate. The plates were than placed at 37° C. 5% CO2 for 24 hrs to allow the cells to attach to the assay plate. The complete media was then removed from the plate and replaced with assay media (DMEM+0.1% BSA) containing 100 ng/ml pertussis toxin with or without 1 μg/ml tetracycline. The plates were placed at 37° C. 5% CO2 for 16 hrs to allow the induced expression of the GPR23 receptor. The cells were then loaded with LiveBLAzer™-FRET B/G substrate (2 μM) containing solution D for 2 hrs. To determine the optimal cell density for this assay the cells were plated at 2,500, 5,000, 10,000, and 20,000 cells per well in a 384 well black walled clear bottom tissue culture assay plate in complete media (DMEM+10% FBS). The plates were than placed at 37° C. 5% CO2 for 24 hrs to allow the cells to attach to the assay plate. The complete media was then removed from the plate and replaced with assay media (DMEM+0.1% BSA) containing 100 ng/ml pertussis toxin and a four fold dilution series of doxycycline starting at 1 μg/ml. The plates were placed at 37° C./5% CO2 for 16 hrs to allow the induced expression of the GPR23 receptor. The cells were then loaded with LiveBLAzer™-FRET B/G substrate (2 μM) containing solution D for 2 hrs. The cells were plated at 20,000 cells per well in a 384 well black walled clear bottom tissue culture assay plate in complete media (DMEM+10% FBS). The plates were then placed at 37° C. 5% CO2 for 6 hrs to allow the cells to attach to the assay plate. The complete media was then removed from the plate and replaced with assay media (DMEM+0.1% BSA) containing 100 ng/ml pertussis toxin, 0%, 0.25%, 0.5%, or 1.0% DMSO, and a three fold dilution series of doxycycline starting at 1 μg/ml. The plates were placed at 37° C./5% CO2 for 16 hrs to allow the induced expression of the GPR23 receptor. The cells were then loaded with LiveBLAzer™-FRET B/G substrate (2 μM) containing solution D for 2 hrs. The cells were plated at 20,000 cells per well in a 384 well black walled clear bottom tissue culture assay plate in complete media (DMEM+10% FBS). The plates were than placed at 37° C. 5% CO2 for 6 hrs to allow the cells to attach to the assay plate. The complete media was then removed from the plate and replaced with assay media (DMEM+0.1% BSA) containing 100 ng/ml pertussis toxin, 0.5% DMSO, and a three fold dilution series of doxycycline starting at 1 μg/ml. The plates were placed at 37° C. 5% CO2 for 16, 20 or 24 hrs to allow the induced expression of the GPR23 receptor. The cells were then loaded with LiveBLAzer™-FRET B/G substrate (2 μM) containing solution D for 2 hrs. Dose response of T-REx-GPR23-CRE-bla CHO-K1 cells to Doxycycline. T-REx-GPR23-CRE-bla CHO-K1 cells were plated in Growth Media (+) and allowed to attach to the tissue culture plate for 6 hrs. They were then induced for GPR23 expression overnight with doxycycline for 16 hrs in Assay Media. Cells were then loaded with LiveBLAzer™-FRET B/G Substrate (CCF4-AM) for 2 hours. Fluorescence emission values at 460 nm and 530 nm were obtained using a standard florescence plate reader and the Blue/Green Emission Ratios were plotted against the indicated concentrations of doxycycline (FIG. 40).
A general note: Reporter assays use an easily measured gene product as a stand-in for the process of interest.

Assay [2] deals with TREx™-mG2A-NFAT-bla Freestyle293F cells. The assay is described as follows: TREx-mG2A-NFAT-bla Freestyle293F (mouse G2A) doxycycline response. The following applies: Homo sapiens, FreeStyle 293-F, 16 h. In kind it is cell-based. The procedure: TREx™-mG2A-NFAT-bla Freestyle293F cells were stimulated for 16 hours with doxycycline in the presence of 0.5% DMSO. Cells were then loaded with LiveBLAzer™-FRET B/G (CCF4-AM) for 2 hours. Fluorescence emission values at 460 nm and 530 nm are obtained using a standard florescence plate reader and the Blue/Green Emission ratios are plotted against the concentration of the stimulant.

A word on the EC50: it is the concentration needed to bring the measured effect to its halfway point. Low values mean a more potent agent, high ones a less potent agent. A word on the pEC50: it is the negative decadic logarithm of the EC50, by convention in mol/L. A lower pEC50 goes with a large EC50. On to `C[C@H]1c2cccc(O)c2C(=O)C2=C(O)[C@]3(O)C(=O)C(C(N)=O)=C(O)[C@@H](N(C)C)[C@@H]3[C@@H](O)[C@@H]21` [Doxycycline], for which the maximum response ratio in assay [1] (20,000 cells per well) is 5.7 fold. Also, the EC50 is 3.3 ng/mL in assay [1] (Cricetulus griseus, 16 h, 0% DMSO, 20,000 cells per well); 4 ng/mL in assay [1] (Cricetulus griseus, 16 h, 0.25% DMSO, 20,000 cells per well); 4 ng/mL in assay [1] (Cricetulus griseus, 16 h, 0.5% DMSO, 20,000 cells per well); 5.1 ng/mL in assay [1] (Cricetulus griseus, 16 h, 1.0% DMSO, 20,000 cells per well); 1.3 ng/mL in assay [1] (Cricetulus griseus, 16 h, 2,500 cells/well, 16 hrs induction); 1 ng/mL in assay [1] (Cricetulus griseus, 16 h, 5,000 cells/well, 16 hrs induction). Further, the EC50 in assay [1] (Cricetulus griseus, 16 h, 10,000 cells/well, 16 hrs induction) turned out to be 1.6 ng/mL; in assay [1] (Cricetulus griseus, 16 h, 20,000 cells/well, 16 hrs induction) it was 2 ng/mL; in assay [1] (Cricetulus griseus, 16 h, 16 hours induction, 0.5% DMSO), 4 ng/mL; in assay [1] (Cricetulus griseus, 20 h, 20 hours induction, 0.5% DMSO) it was 1.9 ng/mL; in assay [1] (Cricetulus griseus, 24 h, 24 hours induction, 0.5% DMSO), 2 ng/mL; in assay [2] (clone #2, 0.5% DMSO), 0.386 ng/mL (≈ 0.869 nM). In addition, the EC50 in assay [2] (clone #25, 0.5% DMSO) was determined as 1.12 ng/mL (≈ 2.52 nM); in assay [2] (clone #53, 0.5% DMSO) it was 0.524 ng/mL (≈ 1.18 nM). The same molecule gave a pEC50 in assay [1] (Cricetulus griseus, representative data, 16 hrs induction, 2 hours loading) of 8.77.
